Reference: US10781456B2, “Carbon-neutral and carbon-positive photorespiration bypass routes supporting higher photosynthetic rate and yield” (Max-Planck-Gesellschaft zur Förderung der Wissenschaften …, priority 2015, dated 2020)

Key:
[1] = molecular target: T1, propionyl-CoA transferase from Ralstonia eutropha (PCTRe), wild type, SEQ ID NO: 12 (Cupriavidus necator, UniProt Q0K874); details: 37° C., pH 7.5, 2 mM acetyl-CoA, 10-800 mM glycolate; n=3
T1 sequence (Q0K874 1-542): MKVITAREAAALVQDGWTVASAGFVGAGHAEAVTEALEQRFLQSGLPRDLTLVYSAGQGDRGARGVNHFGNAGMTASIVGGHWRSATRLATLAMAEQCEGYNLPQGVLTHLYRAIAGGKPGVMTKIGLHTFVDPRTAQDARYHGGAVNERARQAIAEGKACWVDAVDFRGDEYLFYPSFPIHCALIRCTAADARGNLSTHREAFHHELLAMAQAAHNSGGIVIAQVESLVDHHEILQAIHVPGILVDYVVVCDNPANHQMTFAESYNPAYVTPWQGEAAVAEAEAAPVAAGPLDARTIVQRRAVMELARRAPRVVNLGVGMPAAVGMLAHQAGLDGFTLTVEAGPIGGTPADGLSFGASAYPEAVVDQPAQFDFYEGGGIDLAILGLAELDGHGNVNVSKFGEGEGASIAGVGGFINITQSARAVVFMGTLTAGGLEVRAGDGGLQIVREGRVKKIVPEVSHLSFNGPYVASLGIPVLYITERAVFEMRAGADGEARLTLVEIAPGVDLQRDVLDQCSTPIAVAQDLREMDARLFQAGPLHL

[2] = molecular target: T2, 3-phosphoglycerate kinase (Sus scrofa, UniProt Q7SIB7); details: Tompa 1986; Vas 1990; Szilagyi 1998; cited from earlier work
T2 sequence (Q7SIB7 1-417): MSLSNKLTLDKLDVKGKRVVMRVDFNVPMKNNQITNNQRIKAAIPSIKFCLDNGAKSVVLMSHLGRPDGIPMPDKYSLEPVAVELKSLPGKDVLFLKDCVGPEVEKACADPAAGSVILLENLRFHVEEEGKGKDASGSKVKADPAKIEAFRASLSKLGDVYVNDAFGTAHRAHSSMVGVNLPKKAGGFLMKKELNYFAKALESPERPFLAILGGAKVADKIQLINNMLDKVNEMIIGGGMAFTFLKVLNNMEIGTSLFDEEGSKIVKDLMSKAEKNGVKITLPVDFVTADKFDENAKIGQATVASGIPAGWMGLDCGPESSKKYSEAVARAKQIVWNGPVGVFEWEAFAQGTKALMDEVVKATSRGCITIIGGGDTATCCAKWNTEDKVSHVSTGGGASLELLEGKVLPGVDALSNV

[3] = molecular target: T3, malonyl-CoA reductase from Chloroflexus aurantiacus (MCRCa), SEQ ID NO: 8 (Chloroflexus aurantiacus, UniProt Q6QQP7); details: read-out: apparent Km value for malonyl-CoA; Hügler et al., 2002; cited from earlier work
T3 sequence (Q6QQP7 1-1220): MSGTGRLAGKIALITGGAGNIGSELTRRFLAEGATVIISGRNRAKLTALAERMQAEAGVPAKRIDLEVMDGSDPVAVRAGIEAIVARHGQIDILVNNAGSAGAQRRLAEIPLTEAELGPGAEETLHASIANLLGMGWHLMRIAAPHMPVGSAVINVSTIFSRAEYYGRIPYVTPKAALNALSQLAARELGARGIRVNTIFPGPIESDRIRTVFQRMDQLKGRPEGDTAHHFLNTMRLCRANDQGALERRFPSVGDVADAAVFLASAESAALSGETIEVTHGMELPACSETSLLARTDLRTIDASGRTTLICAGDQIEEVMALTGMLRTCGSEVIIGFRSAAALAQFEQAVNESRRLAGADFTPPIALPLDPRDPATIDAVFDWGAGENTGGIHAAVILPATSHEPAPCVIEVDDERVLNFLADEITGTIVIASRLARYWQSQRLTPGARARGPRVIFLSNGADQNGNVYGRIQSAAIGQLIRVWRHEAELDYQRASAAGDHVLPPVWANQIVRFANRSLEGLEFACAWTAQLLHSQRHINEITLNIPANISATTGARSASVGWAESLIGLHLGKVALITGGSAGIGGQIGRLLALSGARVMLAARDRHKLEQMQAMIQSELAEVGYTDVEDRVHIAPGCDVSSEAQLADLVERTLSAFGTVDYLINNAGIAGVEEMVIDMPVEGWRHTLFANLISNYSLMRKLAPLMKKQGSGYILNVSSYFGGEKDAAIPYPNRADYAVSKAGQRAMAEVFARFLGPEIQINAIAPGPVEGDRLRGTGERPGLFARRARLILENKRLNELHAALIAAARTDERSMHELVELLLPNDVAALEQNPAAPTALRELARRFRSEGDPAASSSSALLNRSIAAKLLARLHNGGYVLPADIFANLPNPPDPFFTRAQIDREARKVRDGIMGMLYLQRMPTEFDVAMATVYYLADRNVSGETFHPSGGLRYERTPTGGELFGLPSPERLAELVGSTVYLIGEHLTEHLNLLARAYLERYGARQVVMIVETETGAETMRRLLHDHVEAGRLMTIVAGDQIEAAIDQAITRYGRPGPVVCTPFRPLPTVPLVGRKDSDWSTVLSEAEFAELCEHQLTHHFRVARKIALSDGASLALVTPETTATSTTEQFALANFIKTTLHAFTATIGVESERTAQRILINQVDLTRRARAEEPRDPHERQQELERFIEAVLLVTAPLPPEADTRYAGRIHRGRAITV

tartronyl-CoA = test: malonyl-CoA reductase spectrophotometric assay, NADPH oxidation at 365 nm, tartronyl-CoA into glycerate (reactions 4# and 5); type: biochemical; details: 0.25 mM tartronyl-CoA, 37° C.
Procedure: The kinetics of the MCRCa enzyme for enzymatically converting the substrate tartonyl-CoA into glycerate (via reactions 4# and 5 both catalyzed by MCRCa) were determined spectrophotometrically at 365 nm following the oxidation of NADPH. Per molecule tartronyl-CoA, two molecules of NADPH are oxidized by MCRCa (a first in reaction 4# and a second in reaction 5) The measurements were carried out at 37° C. in a total reaction volume of 200 μL containing 100 mM MOPS buffer (with 5 mM MgCl2, pH 7.5) with an initial NADPH concentration of 0.4 mM NADPH and 23 μg MCRCa.
An alternative enzyme for catalyzing the conversion of tartonyl-CoA into glycerate (via reactions 4# and 5) is the MCR from Erythrobacter sp. NAP1 (MCRE). It was tested for its activity with malonyl-CoA and for tartronyl-CoA with the assay described above for MCRCa.

glycolyl-CoA = test: MCRCa coupled assay: glycolyl-CoA carboxylation by PCC coupled to two step reduction to glycerate by MCRCa (reactions 3#, 4#, 5), HPLC-hrMS and NADPH absorption; type: biochemical; details: tartronyl-CoA produced by PCCMe_D407I_Y143H
Procedure: In addition to the above mentioned assays also another assay was performed in which the formation of tartronyl-CoA from glycolyl-CoA (reaction 3#) by the PCCMe_D407I_Y143H enzyme was directly coupled to its subsequent two step reduction via tartronate-semialdehyde (reaction 4#) to glycerate (reaction 5) by use of the purified MCRCa (Kröger et al., 2011, loc. cit.). The reaction mixture (300 μL) contained 200 mM NH4HCO3 buffer, pH 7.7, 5 mM MgCl2, 1 mM ATP, 0.4 mM NADPH, 43 μg PCCMe_D407I_Y143H, and 184 μg of MCRCa.
To determine whether MCRCa was able to catalyze the two step reduction of tartonyl-CoA to glycerate (via tartronic semialdehyde), samples of the reaction mixture were withdrawn after all of the NADPH was consumed. The samples were stopped with formic acid (5% final concentration). The acidified samples were centrifuged at 4° C. and 17 000×g and the supernatants were analyzed by HPLC-hrMS.
The formation of glycerate was analyzed using an Agilent 6550 iFunnel Q-TOF LC-MS system equipped with an electrospray ionization source set to negative ionization mode. […]
LC-MS data were analyzed using MassHunter Qualitative Analysis software (Agilent). […] In such assays the tartronate semialdehyde can be covalently derivatized with phenylhydrazine to a phenylhydrazone, which can be detected by its absorbance at 324 nm and confirmed by its corresponding mass spectrum. […]

malonyl-CoA = details: 0.3 mM substrate, 37° C., Kröger et al. 2011; cited from earlier work

## O=C(O)CO [glycolate]
[1]
  vmax: 1.3 ± 0.07 U mg^−1

## O=C(O)COP(=O)(O)O [2-PG, 2-phosphoglycolate]
[2]
  type of inhibition of 3-phosphoglycerate kinase: competitive inhibitor

## CC(C)(COP(=O)(O)OP(=O)(O)OC[C@H]1O[C@@H](n2cnc3c(N)ncnc32)[C@H](O)[C@@H]1OP(=O)(O)O)[C@@H](O)C(=O)NCCC(=O)NCCSC(=O)CC(=O)O [malonyl-CoA]
[3]
  Km: 30 µM

B1: MCRCa: malonyl-CoA reductase of Chloroflexus aurantiacus, NCBI accession no. AAS20429.1, SEQ ID NO: 8 (protein, listed as Chloroflexus aurantiacus)
chain: MSGTGRLAGKIALITGGAGNIGSELTRRFLAEGATVIISGRNRAKLTALAERMQAEAGVPAKRIDLEVMDGSDPVAVRAGIEAIVARHGQIDILVNNAGSAGAQRRLAEIPLTEAELGPGAEETLHASIANLLGMGWHLMRIAAPHMPVGSAVINVSTIFSRAEYYGRIPYVTPKAALNALSQLAARELGARGIRVNTIFPGPIESDRIRTVFQRMDQLKGRPEGDTAHHFLNTMRLCRANDQGALERRFPSVGDVADAAVFLASAESAALSGETIEVTHGMELPACSETSLLARTDLRTIDASGRTTLICAGDQIEEVMALTGMLRTCGSEVIIGFRSAAALAQFEQAVNESRRLAGADFTPPIALPLDPRDPATIDAVFDWGAGENTGGIHAAVILPATSHEPAPCVIEVDDERVLNFLADEITGTIVIASRLARYWQSQRLTPGARARGPRVIFLSNGADQNGNVYGRIQSAAIGQLIRVWRHEAELDYQRASAAGDHVLPPVWANQIVRFANRSLEGLEFACAWTAQLLHSQRHINEITLNIPANISATTGARSASVGWAESLIGLHLGKVALITGGSAGIGGQIGRLLALSGARVMLAARDRHKLEQMQAMIQSELAEVGYTDVEDRVHIAPGCDVSSEAQLADLVERTLSAFGTVDYLINNAGIAGVEEMVIDMPVEGWRHTLFANLISNYSLMRKLAPLMKKQGSGYILNVSSYFGGEKDAAIPYPNRADYAVSKAGQRAMAEVFARFLGPEIQINAIAPGPVEGDRLRGTGERPGLFARRARLILENKRLNELHAALIAAARTDERSMHELVELLLPNDVAALEQNPAAPTALRELARRFRSEGDPAASSSSALLNRSIAAKLLARLHNGGYVLPADIFANLPNPPDPFFTRAQIDREARKVRDGIMGMLYLQRMPTEFDVAMATVYYLADRNVSGETFHPSGGLRYERTPTGGELFGLPSPERLAELVGSTVYLIGEHLTEHLNLLARAYLERYGARQVVMIVETETGAETMRRLLHDHVEAGRLMTIVAGDQIEAAIDQAITRYGRPGPVVCTPFRPLPTVPLVGRKDSDWSTVLSEAEFAELCEHQLTHHFRVARKIALSDGASLALVTPETTATSTTEQFALANFIKTTLHAFTATIGVESERTAQRILINQVDLTRRARAEEPRDPHERQQELERFIEAVLLVTAPLPPEADTRYAGRIHRGRAITV
modifications: [CDS]1..3663 from SEQ ID NO 7
tartronyl-CoA
  specific activity with tartronyl-CoA: 0.6 U mg^−1
glycolyl-CoA
  reduction of tartronyl-CoA to glycerate (HPLC-hrMS): able to reduce the tartronyl-CoA, produced by PCCMe_D407I_Y143H, to glycerate
malonyl-CoA
  specific activity with malonyl-CoA: approximately 7 U mg^−1
